experiment: Sensory test of toothpaste with eucalyptus menthol type flavoring by trained expert panel; type: in vivo; details: compared with 1-menthyl methyl ether
Protocol: Production of a Toothpaste Flavoring of the Eucalyptus Menthol Type, Using Menthyl Methyl Ether
The following were mixed:
In a second mixture batch, the 1,8-cineole (eucalyptol) content was replaced by 1-menthyl methyl ether. Both flavorings are incorporated at a concentration of 1.3% by weight into a standard toothpaste mix based on silicic acid. Both types of toothpaste were tested under conditions of practice by an expert panel trained in sensory testing.

SMILES	sensory effects when used instead of 1-menthyl methyl ether
COC(C)C1CCCC(C)(C)C1 (stereo not drawn) [1-(3,3-Dimethylcyclohexyl)ethyl methyl ether]	Comparable effects
COC1CC(C)CC(C)(C)C1 (stereo not drawn) [3,3,5-trimethylcyclohexyl methyl ether]	Comparable effects
C=C(C)C1CCC(C)CC1OC (stereo not drawn) [isopulegyl methyl ether, Isopulegyl methyl ether]	Comparable effects

— US8569383B2, “Utilization of rhinologically active substances” (Symrise AG, priority 2000, dated 2013)
